Results taken from patent US7741327B2 (Hoffmann-La Roche Inc., priority 2008, dated 2010).

Target: T1, Recombinant human liver GK1 (GST-GK) (Homo sapiens, UniProt P35557)
T1 construct: made in house; host or cells: E. coli
T1 sequence (P35557 1-466 isoform P35557-2): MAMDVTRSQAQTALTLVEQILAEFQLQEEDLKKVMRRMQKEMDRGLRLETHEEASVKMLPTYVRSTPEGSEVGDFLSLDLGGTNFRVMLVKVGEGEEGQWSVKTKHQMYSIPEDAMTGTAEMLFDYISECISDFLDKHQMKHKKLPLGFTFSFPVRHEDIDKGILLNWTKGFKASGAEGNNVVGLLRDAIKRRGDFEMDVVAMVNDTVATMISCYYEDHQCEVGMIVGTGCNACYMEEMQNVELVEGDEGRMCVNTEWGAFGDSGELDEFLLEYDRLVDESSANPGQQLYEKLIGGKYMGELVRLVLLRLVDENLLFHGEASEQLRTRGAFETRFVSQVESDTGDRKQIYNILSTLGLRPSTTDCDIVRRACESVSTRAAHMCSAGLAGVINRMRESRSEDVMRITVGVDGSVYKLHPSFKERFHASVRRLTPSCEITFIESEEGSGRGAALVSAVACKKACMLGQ
Experiment: In vitro glucokinase activity (G6PDH-coupled NADH assay)
Type: biochemical
Details: for SC1.5 (concentration of activator that produced a 50% increase in the activity of GK): 30° C., 5 mM D-glucose, 10% DMSO
Summary of the method: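 Activation measured as the rate of OD340 rise from G6PDH-coupled NADH production, relative to 10% DMSO control, reported as SC1.5 (concentration for 50% activity increase). Conditions: 30° C, pH 7.1 Hepes, 5 mM glucose, 1 mM ATP, purified recombinant GST-human GK1, compound preincubated 10 min before enzyme addition.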

SC1.5 (concentration of activator that produced a 50% increase in the activity of GK)	fold act. @ 30 μM (at 30 μM test compound)	Compound
0.037 µM	–	Cl.Cn1ccc(NC(=O)[C@H](CC2CCCCC2)N2CC(Oc3c(F)ccc(Cl)c3F)=CC2=O)n1 [Example 75, (S)-2-[4-(3-Chloro-2,6-difluoro-phenoxy)-2-oxo-2,5-dihydro-pyrrol-1-yl]-3-cyclohexyl-N-(1-methyl-1H-pyrazol-3-yl)-propionamide Hydrochloride]
12.645 µM	–	COC1=CC(=O)N([C@@H](CC2CCCC2)C(=O)Nc2ccn(C)n2)C1 [Example 6, (S)-3-Cyclopentyl-2-(4-methoxy-2-oxo-2,5-dihydro-pyrrol-1-yl)-N-(1-methyl-1H-pyrazol-3-yl)-propionamide]
0.137 µM	–	CC(C)(O)Cn1ccc(NC(=O)C(C[C@H]2C[C@@H](C)C2)N2CC(Oc3ccccc3Cl)=CC2=O)n1 (stereo partly drawn) [Example 217, 2-[4-(2-Chloro-phenoxy)-2-oxo-2,5-dihydro-pyrrol-1-yl]-N-[1-(2-hydroxy-2-methyl-propyl)-1H-pyrazol-3-yl]-3-(cis-3-methyl-cyclobutyl)-propionamide]
0.681 µM	–	CC(C)Oc1ccccc1OC1=CC(=O)N([C@@H](CC2CCCCC2)C(=O)Nc2ccn(CC(C)(C)O)n2)C1 [Example 195, (S)-3-cyclohexyl-N-[1-(2-hydroxy-2-methyl-propyl)-1H-pyrazol-3-yl]-2-[4-(2-isopropoxy-phenoxy)-2-oxo-2,5-dihydro-pyrrol-1yl]-propionamide]
0.011 µM	–	CC(C)(O)Cn1ccc(NC(=O)[C@H](CC2CCCCC2)N2CC(Oc3cccc(F)c3F)=CC2=O)n1 [Example 200, (S)-3-cyclohexyl-2-[4-(2,3-difluoro-phenoxy)-2-oxo-2,5-dihydro-pyrrol-1-yl]-N-[1-(2-hydroxy-2-methyl-propyl)-1H-pyrazol-3-yl]-propionamide]
2.013 µM	–	CC(C)C[C@@H](C(=O)Nc1ccn(C[C@@H]2COC(C)(C)O2)n1)N1CC(Oc2ccccc2Br)=CC1=O [Example 136, (S)-2-[4-(2-Bromo-phenoxy)-2-oxo-2,5-dihydro-pyrrol-1-yl]-4-methyl-pentanoic acid [1-((R)-2,2-dimethyl-[1,3]dioxolan-4-yl-methyl)-1H-pyrazol-3-yl]-amide]
0.056 µM	–	CCCc1ccccc1OC1=CC(=O)N([C@@H](CC2CCCCC2)C(=O)Nc2ccn(CC(C)(C)O)n2)C1 [Example 198, (S)-3-cyclohexyl-N-[1-(2-hydroxy-2-methyl-propyl)-1H-pyrazol-3-yl]-2-[2-oxo-4-(2-propyl-phenoxy)-2,5-dihydro-pyrrol-1-yl]-propionamide]
0.031 µM	–	COc1ccccc1OC1=CC(=O)N([C@@H](CC2CCCCC2)C(=O)Nc2ccn(C[C@H](O)CO)n2)C1 [Example 30, (S)-3-Cyclohexyl-N-[1-((S)-2,3-dihydroxy-propyl)-1H-pyrazol-3-yl]-2-[4-(2-methoxy-phenoxy)-2-oxo-2,5-dihydro-pyrrol-1-yl]-propionamide]
0.823 µM	–	CC(C)C[C@@H](C(=O)Nc1ccn(CC(C)(C)O)n1)N1CC(Oc2cccc(CC(C)(C)O)c2)=CC1=O [Example 236, (S)-2-{4-[3-(2-Hydroxy-2-methyl-propyl)-phenoxy]-2-oxo-2,5-dihydro-pyrrol-1-yl}-4-methyl-pentanoic acid [1-(2-hydroxy-2-methyl-propyl)-1H-pyrazol-3-yl]-amide]
0.021 µM	–	CC(C)(O)Cn1ccc(NC(=O)[C@H](CC2CCCCC2)N2CC(Oc3cccc(Br)c3)=CC2=O)n1 [Example 205, (S)-2-[4-(3-bromo-phenoxy)-2-oxo-2,5-dihydro-pyrrol-1-yl]-3-cyclohexyl-N-[1-(2-hydroxy-2-methyl-propyl)-1H-pyrazol-3-yl]-propionamide]
2.089 µM	–	CC(C)C[C@@H](C(=O)Nc1ccn(C)n1)N1CC(Oc2cccc(C(C)(C)O)c2F)=CC1=O [Example 143, (S)-2-{4-[2-Fluoro-3-(1-hydroxy-1-methyl-ethyl)-phenoxy]-2-oxo-2,5-dihydro-pyrrol-1-yl}-4-methyl-pentanoic acid (1-methyl-1H-pyrazol-3-yl)-amide]
3.591 µM	–	COC1=CC(=O)N([C@@H](CC2CCCC2)C(=O)Nc2ccn(Cc3cccc(C#N)c3)n2)C1 [Example 12, (S)-N-[1-(3-Cyano-benzyl)-1H-pyrazol-3-yl]-3-cyclopentyl-2-(4-methoxy-2-oxo-2,5-dihydro-pyrrol-1-yl)-propionamide]
0.073 µM	–	CC(C)(O)Cn1ccc(NC(=O)C(CC2CCOCC2)N2CC(Oc3ccccc3Br)=CC2=O)n1 (stereo not drawn) [Example 261, 2-[4-(2-Bromo-phenoxy)-2-oxo-2,5-dihydro-pyrrol-1-yl]-N-[1-(2-hydroxy-2-methyl-propyl)-1H-pyrazol-3-yl]-3-(tetrahydro-pyran-4-yl)-propionamide]

Further lines, the compound ahead of its results:

Compound	SC1.5 (concentration of activator that produced a 50% increase in the activity of GK)	fold act. @ 30 μM (at 30 μM test compound)
O=C(Nc1ccn(C[C@@H](O)CO)n1)[C@H](Cc1c(F)cccc1F)N1CC(Oc2ccccc2Cl)=CC1=O [Example 185, (S)-2-[4-(2-chloro-phenoxy)-2-oxo-2,5-dihydro-pyrrol-1-yl]-N-[1-((R)-2,3-dihydroxy-propyl)-1H-pyrazol-3-yl]-3-(2,6-difluorophenyl)-propionamide]	0.371 µM	–
COC1=CC(=O)N([C@@H](CC2CCCC2)C(=O)Nc2ncc(Cl)s2)C1 [Example 2, (S)-N-(5-Chloro-thiazol-2-yl)-3-cyclopentyl-2-(4-methoxy-2-oxo-2,5-dihydro-pyrrol-1-yl)-propionamide]	1.672 µM	–
CCOc1cccc(OC2=CC(=O)N([C@@H](CC(C)C)C(=O)Nc3cnc([C@H]4COC(C)(C)O4)cn3)C2)c1F [Example 150, (S)-2-[4-(3-Ethoxy-2-fluoro-phenoxy)-2-oxo-2,5-dihydro-pyrrol-1-yl]-4-methyl-pentanoic acid [5-((S)-2,2-dimethyl-[1,3]dioxolan-4-yl)-pyrazin-2-yl]-amide]	0.2 µM	–
COC1=CC(=O)N([C@@H](CC2CCCC2)C(=O)Nc2ncc(F)s2)C1 [Example 8, (S)-3-Cyclopentyl-N-(5-fluoro-thiazol-2-yl)-2-(4-methoxy-2-oxo-2,5-dihydro-pyrrol-1-yl)-propionamide]	1.365 µM	–
CCOc1cccc(OC2=CC(=O)N([C@@H](CC(C)C)C(=O)Nc3ccn(C[C@@H](O)CO)n3)C2)c1Cl [Example 161, (S)-2-[4-(2-chloro-3-ethoxy-phenoxy)-2-oxo-2,5-dihydro-pyrrol-1-yl]-4-methyl-pentanoic acid [1-((R)-2,3-dihydroxy-propyl)-1H-pyrazol-3-yl]-amide]	0.042 µM	–
CC(C)C[C@@H](C(=O)Nc1ccn(C[C@@H](O)C[C@@H](O)CC(=O)O)n1)N1CC(Oc2ccccc2Cl)=CC1=O [Example 194, (3R,5S)-6-(3-{(S)-2-[4-(2-chloro-phenoxy)-2-oxo-2,5-dihydro-pyrrol-1-yl]-4-methylpentanoylamino}-pyrazol-1-yl)-3,5-dihydroxy-hexanoic acid]	0.695 µM	–
CC(C)C[C@@H](C(=O)Nc1cnccn1)N1CC(Oc2ccc(CC(C)(C)O)cc2)=CC1=O [Example 245, (S)-2-{4-[4-(2-Hydroxy-2-methyl-propyl)-phenoxy]-2-oxo-2,5-dihydro-pyrrol-1-yl}-4-methyl-pentanoic acid pyrazin-2-ylamide]	3.668 µM	–
CC(C)C[C@@H](C(=O)Nc1ccn(C[C@@H]2COC(C)(C)O2)n1)N1CC(Oc2cccc(Cl)c2Cl)=CC1=O [Example 79, (S)-2-[4-(2,3-Dichloro-phenoxy)-2-oxo-2,5-dihydro-pyrrol-1-yl]-4-methyl-pentanoic acid [1-((R)-2,2-dimethyl-[1,3]dioxolan-4-yl-methyl)-1H-pyrazol-3-yl]-amide]	0.682 µM	–
CC[C@@H](C)CC(C(=O)Nc1ccn(C[C@@H](O)CO)n1)N1CC(Oc2ccccc2Cl)=CC1=O (stereo partly drawn) [Example 253, (R)-2-[4-(2-Chloro-phenoxy)-2-oxo-2,5-dihydro-pyrrol-1-yl]-4-methyl-hexanoic acid [1-((R)-2,3-dihydroxy-propyl)-1H-pyrazol-3-yl]-amide]	0.113 µM	–
CC(C)C[C@@H](C(=O)Nc1nc(N(C)C)ns1)N1CC(Oc2ccccc2Cl)=CC1=O [Example 108, (S)-2-[4-(2-Chloro-phenoxy)-2-oxo-2,5-dihydro-pyrrol-1-yl]-4-methyl-pentanoic acid (3-dimethylamino-[1,2,4]thiadiazol-5-yl)-amide]	> 30 µM	1.4 fold
